Measured values from PMC4559854 (Proteins, 2009).

Tests used:
PSA = PSA (Homo sapiens, UniProt P07288); experiment: Substrate hydrolysis assay of Abz-peptide spots with purified PSA; format: biochemical; settings: for hydrolysis / substrate activity (in words): compared with c0
chymotrypsin = settings: selectivity for PSA; cited from earlier work

Sequence of PSA (P07288 25-261): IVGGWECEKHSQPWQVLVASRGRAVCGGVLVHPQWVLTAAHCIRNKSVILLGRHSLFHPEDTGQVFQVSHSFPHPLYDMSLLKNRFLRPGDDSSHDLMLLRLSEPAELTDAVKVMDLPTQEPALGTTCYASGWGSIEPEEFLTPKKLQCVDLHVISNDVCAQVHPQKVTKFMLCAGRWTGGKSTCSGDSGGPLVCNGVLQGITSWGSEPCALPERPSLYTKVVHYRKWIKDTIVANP

## GSSKPQ [c4]
PSA
  hydrolysis / substrate activity (in words): almost complete loss of hydrolysis activity

## GSAKLQ [c7]
PSA
  hydrolysis / substrate activity (in words): high activity for PSA hydrolysis
PSA; versus c0
  increase in the hydrolysis rate compared to c0: 2 fold

## HSSKLQ
chymotrypsin
  hydrolysis by chymotrypsin: no detectable hydrolysis

## GSSKYQ [c3]
PSA
  hydrolysis / substrate activity (in words): high substrate activity
